How the values were obtained:
[1] = test system: patients with Intermittent Claudication (Leriche-Fontaine Class II); assay: Quality of life questionnaires (PAD-related, SF-36, WIQ), O'Brien global score; format: in vivo, human
Excerpt: (§1) Three parallel, randomized, double-blind, placebo-controlled, phase III studies in patients with Intermittent Claudication (Leriche-Fontaine Class II) represent the basis for the above considerations. They are study ST 261 201 90 INT (hereinafter referred to as the European study); study ST 94 301 (hereinafter referred to as the Hiatt study); and ST 93 301, hereinafter referred to as the Porter study).
(§2) Diagnosis and main criteria for inclusion for these studies were similar, as follows: intermittent claudication of ascertained vascular origin; age between 40 and 80 years; lesions at iliac-femoral and/or femoro-popliteal level confirmed by angiographic or Doppler examination; no pain at rest (Leriche-Fontaine Class III) or ulcerative lesions (Leriche-Fontaine Class IV); history of claudication >1 year; dietary regime and alcohol intake stable during the study. All patients were strongly encouraged to stop smoking and exercise actively. The latter recommendation was to be achieved either through a supervised, vascular rehabilitation-based program, or via an unsupervised, home-based program.
The above studies also assessed quality of life (QoL) as their main secondary efficacy parameter: the European study used the ad-hoc validated PAD-related questionnaire, while the Hiatt and Porter studies used both the very well-known and validated Health Status Survey-Short Form 36 (SF-36) and the Walking Impairment Questionnaire (WIQ).
Similar results were obtained also when considering QoL. Since several questionnaires were used in each study, a global summary statistic was used in order to deal with this issue, as well as with the multiplicity of domains present in each of these questionnaires, i.e., the O'Brien test.

platelet = details: literature (Pignatelli et al. 2003); cited from earlier work
[2] = test system: patients with Intermittent Claudication (Leriche-Fontaine Class II); assay: Maximum walking distance on treadmill, three phase III placebo-controlled studies; format: in vivo, human; details: for MWD at Month 6/Endpoint, Mean / MWD at Month 6/Endpoint, Median: PLC 2 g/day oral, 3 km/h; for MWD Change from Baseline to Endpoint, Mean / MWD Change from Baseline to Endpoint, Median: PLC 2 g/day
Excerpt: as §1, §2
A total of 316 subjects (PLC, 153 subjects; placebo, 163 subjects) were randomized in the primary intention-to-treat population (ITT) of the European study, which was conducted in 39 centers in West and East Europe, and tested PLC (2 g/day) for 12 months vs. placebo. Patients had to have a maximum walking distance (MWD) at baseline between 50-400 m. and variability over the three treadmill tests carried-out at baseline of ≦25%.
A total of 161 subjects (PLC, 85 subjects; placebo, 76 subjects) were randomized in the ITT population of the Hiatt study, which was performed in 10 centers in the USA and Russia, and tested PLC (2 g/day for 6 months) versus placebo.
A total of 155 subjects (ITT population: PLC, 80 subjects; placebo, 75 subjects) were randomized in the 6-month, Porter study, which was conducted in 16 US centers and tested PLC 2 g/day vs. placebo as its primary target population. All randomized patients had baseline MWD between 50-250 m and variability ≦25%.
These phase III studies evaluated physical performance as their primary efficacy parameter. This was assessed by the maximum walking capacity of patients on a treadmill: the European study used a fixed treadmill with 7% slope and 3 km/hour speed; the Hiatt study used a graded treadmill, starting at 0% slope and increasing by 2% every 2 minutes, with a 2 mph speed; the Porter study used a fixed treadmill with 12% slope and 2 mph speed.
Given the non-normality of response distributions for MWD, the comparison between PLC and placebo-treated patients was based on a non-parametric test, i.e., the Cochrane-Mantel-Haenszel test on the within-center, standardized mid-ranks (MODRIDITS) of changes over baseline, stratified by site.

[3] = test system: patients with claudication; details: orally given; randomised placebo-controlled trials of the literature; cited from earlier work
claudicant patients = details: six patients; intravenous 3 g bolus followed by infusion of 2 mg/Kg/man for 30 minutes; Brevetti et al. 1988; cited from earlier work
[4] = ITT with concomitant physical exercise, PLC N = 54, P-value vs placebo <0.001
[5] = ITT without concomitant physical exercise, PLC N = 261, P-value vs placebo 0.142
[6] = ITT with concomitant physical exercise, N = 54, P-value vs placebo 0.000
[7] = ITT without concomitant physical exercise, N = 264, P-value vs placebo 0.777

Compound: CCC(=O)O[C@H](CC(=O)[O-])C[N+](C)(C)C [PLC, propionyl L-carnitine]
- Change in O'Brien scores for QoL questionnaires, Baseline to Endpoint, Mean [1, 4]: 0.56
- Change in O'Brien scores for QoL questionnaires, Baseline to Endpoint, Median [1, 4]: 0.54
- Change in O'Brien scores for QoL questionnaires, Baseline to Endpoint, Mean [1, 5]: 0.51
- Change in O'Brien scores for QoL questionnaires, Baseline to Endpoint, Median [1, 5]: 0.50
- QoL at endpoint compared to the placebo group ([1]; overall ITT subjects, p<0.001): significant improvement
- arachidonic acid accumulation in the phospholipids of platelet membrane (platelet): inhibits
- platelet thromboxane A2 and O2 formation (platelet): reduction
- MWD at Month 6/Endpoint, Mean ([2]; ITT with concomitant physical exercise, N = 54, converted to treadmill 7% slope, baseline mean 249.7): 410.8 m
- MWD at Month 6/Endpoint, Median ([2]; ITT with concomitant physical exercise, N = 54, treadmill 7% slope, baseline median 239.2): 400.9 m
- MWD Change from Baseline to Endpoint, Mean [2, 6]: 161.1 m
- MWD Change from Baseline to Endpoint, Median [2, 6]: 154.8 m
- MWD at Month 6/Endpoint, Mean ([2]; ITT without concomitant physical exercise, N = 264, treadmill 7% slope, baseline mean 205.6): 325.3 m
- MWD at Month 6/Endpoint, Median ([2]; ITT without concomitant physical exercise, N = 264, treadmill 7% slope, baseline median 171.7): 225.5 m
- MWD Change from Baseline to Endpoint, Mean [2, 7]: 119.7 m
- MWD Change from Baseline to Endpoint, Median [2, 7]: 36.6 m
- net PLC advantage over placebo in exercise performance at endpoint ([2]; overall ITT subjects of the three studies, p=0.08): 18.2 m
- walking distance in patients with claudication [3]: significant increase

Compound: C[N+](C)(C)C[C@H](O)CC(=O)[O-] [levocarnitine, L-carnitine]
- increase of venous lactate induced by walking test (claudicant patients): lowered
- walking distance in patients with claudication [3]: significant increase

— patent US20070078097A1, “Method for treating intermittent claudication comprising the administration of propionyl L-carnitine and a concomitant physical training” (priority 2005, published 2007)
